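Following 48 hours of exposure in 96-well plates, responses at five concentrations were used to interpolate endpoints linearly. GI50: concentration for 50% inhibition of growth. At the TGI there is no net growth.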
Tests used:
Assay in all cases: NCI-60 cell line screen, 48 h
UO-31 renal = system: UO-31 renal
SNB-19 CNS = system: SNB-19 CNS
TK-10 renal = system: TK-10 renal
MALME-3M melanoma = system: MALME-3M melanoma
SK-OV-3 ovarian = system: SK-OV-3 ovarian
HCC-2998 colon = system: HCC-2998 colon
A549 NSCLC = system: A549 NSCLC
UACC-257 melanoma = system: UACC-257 melanoma
U251 CNS = system: U251 CNS
SK-MEL-2 melanoma = system: SK-MEL-2 melanoma
SNB-75 CNS = system: SNB-75 CNS
MOLT-4 leukemia = system: MOLT-4 leukemia
NCI/ADR-RES ovarian = system: NCI/ADR-RES ovarian
UACC-62 melanoma = system: UACC-62 melanoma
NCI-H522 lung = system: NCI-H522 lung
SF-268 CNS = system: SF-268 CNS
MDA-MB-231 breast = system: MDA-MB-231 breast
COLO 205 colon = system: COLO 205 colon
DU-145 prostate = system: DU-145 prostate
OVCAR-8 ovarian = system: OVCAR-8 ovarian
LOX IMVI melanoma = system: LOX IMVI melanoma
SF-295 CNS = system: SF-295 CNS
SR leukemia = system: SR leukemia
NCI-H23 lung = system: NCI-H23 lung
HCT-116 colon = system: HCT-116 colon
HS 578T breast = system: HS 578T breast
NCI-H226 lung = system: NCI-H226 lung
HT29 colon = system: HT29 colon
HOP-92 NSCLC = system: HOP-92 NSCLC
KM12 colon = system: KM12 colon
A498 renal = system: A498 renal
IGROV1 ovarian = system: IGROV1 ovarian
T-47D breast = system: T-47D breast
HCT-15 colon = system: HCT-15 colon
SN12C renal = system: SN12C renal
CCRF-CEM leukemia = system: CCRF-CEM leukemia
HL-60(TB) leukemia = system: HL-60(TB) leukemia
HOP-62 NSCLC = system: HOP-62 NSCLC
M14 melanoma = system: M14 melanoma
RPMI-8226 leukemia = system: RPMI-8226 leukemia
786-0 renal = system: 786-0 renal
CAKI-1 renal = system: CAKI-1 renal
SK-MEL-5 melanoma = system: SK-MEL-5 melanoma
SF-539 CNS = system: SF-539 CNS
SW-620 colon = system: SW-620 colon
PC-3 prostate = system: PC-3 prostate
OVCAR-4 ovarian = system: OVCAR-4 ovarian
BT-549 breast = system: BT-549 breast
ACHN renal = system: ACHN renal
RXF 393 renal = system: RXF 393 renal
OVCAR-3 ovarian = system: OVCAR-3 ovarian
K-562 leukemia = system: K-562 leukemia
NCI-H460 lung = system: NCI-H460 lung
OVCAR-5 ovarian = system: OVCAR-5 ovarian
MDA-MB-435 = system: MDA-MB-435
MCF7 breast = system: MCF7 breast
SK-MEL-28 melanoma = system: SK-MEL-28 melanoma

With `Cc1ccc(OCCCCCCNCCO)c(C)c1` the GI50 (UO-31 renal) was 12.1 µM, the TGI (UO-31 renal) was 26.4 µM and the GI50 (SNB-19 CNS) was 14.3 µM. It also gave a TGI (SNB-19 CNS) of 31 µM, a GI50 (TK-10 renal) of 16 µM and a TGI (TK-10 renal) of 30 µM. The GI50 (MALME-3M melanoma) was 17 µM, the TGI (MALME-3M melanoma) was 35.3 µM and the GI50 (SK-OV-3 ovarian) was 15.6 µM. For the same compound, the TGI (SK-OV-3 ovarian) was 29.8 µM, the GI50 (HCC-2998 colon) was 14.7 µM and the TGI (HCC-2998 colon) was 30.2 µM. The GI50 (A549 NSCLC) was 17.8 µM, the TGI (A549 NSCLC) was 34.8 µM and the GI50 (UACC-257 melanoma) was 14.2 µM. For the same compound, the TGI (UACC-257 melanoma) was 29.6 µM, the GI50 (U251 CNS) was 12.7 µM and the TGI (U251 CNS) was 26.8 µM. The GI50 (SK-MEL-2 melanoma) was 19.8 µM, the TGI (SK-MEL-2 melanoma) was 37.6 µM and the GI50 (SNB-75 CNS) was 6.47 µM. The TGI (SNB-75 CNS) was 20.1 µM, the GI50 (MOLT-4 leukemia) was 16.3 µM and the TGI (MOLT-4 leukemia) was 36.8 µM. It also gave a GI50 (NCI/ADR-RES ovarian) of 16.3 µM, a TGI (NCI/ADR-RES ovarian) of 37.1 µM and a GI50 (UACC-62 melanoma) of 12.1 µM. The TGI (UACC-62 melanoma) was 25.7 µM, the GI50 (NCI-H522 lung) was 14.7 µM and the TGI (NCI-H522 lung) was 30.1 µM. It also gave a GI50 (SF-268 CNS) of 16 µM, a TGI (SF-268 CNS) of 31.1 µM and a GI50 (MDA-MB-231 breast) of 9.11 µM. For the same compound, the TGI (MDA-MB-231 breast) was 25.5 µM, the GI50 (COLO 205 colon) was 10 µM and the TGI (COLO 205 colon) was 26.3 µM. The GI50 (DU-145 prostate) was 16.7 µM, the TGI (DU-145 prostate) was 30.6 µM and the GI50 (OVCAR-8 ovarian) was 17.8 µM. The TGI (OVCAR-8 ovarian) was 35.9 µM, the GI50 (LOX IMVI melanoma) was 15 µM and the TGI (LOX IMVI melanoma) was 29.7 µM. The GI50 (SF-295 CNS) was 17.8 µM, the TGI (SF-295 CNS) was 39 µM and the GI50 (SR leukemia) was 14.1 µM. The TGI (SR leukemia) was 35.5 µM, the GI50 (NCI-H23 lung) was 15.5 µM and the TGI (NCI-H23 lung) was 35.4 µM. For the same compound, the GI50 (HCT-116 colon) was 14.2 µM, the TGI (HCT-116 colon) was 31.6 µM and the GI50 (HS 578T breast) was 14.3 µM. The TGI (HS 578T breast) was 35.5 µM, the GI50 (NCI-H226 lung) was 15.1 µM and the TGI (NCI-H226 lung) was 32.9 µM. The GI50 (HT29 colon) was 11.3 µM, the TGI (HT29 colon) was 25.6 µM and the GI50 (HOP-92 NSCLC) was 2.36 µM. The TGI (HOP-92 NSCLC) was 13.4 µM, the GI50 (KM12 colon) was 17.2 µM and the TGI (KM12 colon) was 32.4 µM. For the same compound, the GI50 (A498 renal) was 3.48 µM, the TGI (A498 renal) was 17.7 µM and the GI50 (IGROV1 ovarian) was 16.2 µM. The TGI (IGROV1 ovarian) was 35.3 µM, the GI50 (T-47D breast) was 11.7 µM and the TGI (T-47D breast) was 30.2 µM. It also gave a GI50 (HCT-15 colon) of 15.8 µM, a TGI (HCT-15 colon) of 33.8 µM and a GI50 (SN12C renal) of 12.7 µM. It also gave a TGI (SN12C renal) of 26.9 µM, a GI50 (CCRF-CEM leukemia) of 15.6 µM and a TGI (CCRF-CEM leukemia) of 36.7 µM. For the same compound, the GI50 (HL-60(TB) leukemia) was 0.323 µM, the TGI (HL-60(TB) leukemia) was 1.45 µM and the GI50 (HOP-62 NSCLC) was 15 µM. For the same compound, the TGI (HOP-62 NSCLC) was 30.8 µM, the GI50 (M14 melanoma) was 16.3 µM and the TGI (M14 melanoma) was 35.3 µM. The GI50 (RPMI-8226 leukemia) was 15.5 µM, the TGI (RPMI-8226 leukemia) was 37.9 µM and the GI50 (786-0 renal) was 14 µM. It also gave a TGI (786-0 renal) of 28.8 µM, a GI50 (CAKI-1 renal) of 16.2 µM and a TGI (CAKI-1 renal) of 32.2 µM. For the same compound, the GI50 (SK-MEL-5 melanoma) was 10.4 µM, the TGI (SK-MEL-5 melanoma) was 22.4 µM and the GI50 (SF-539 CNS) was 14.7 µM. For the same compound, the TGI (SF-539 CNS) was 28.6 µM, the GI50 (SW-620 colon) was 16.3 µM and the TGI (SW-620 colon) was 33 µM. For the same compound, the GI50 (PC-3 prostate) was 14 µM, the TGI (PC-3 prostate) was 29.7 µM and the GI50 (OVCAR-4 ovarian) was 13.6 µM. The TGI (OVCAR-4 ovarian) was 28.8 µM, the GI50 (BT-549 breast) was 13.5 µM and the TGI (BT-549 breast) was 28 µM. For the same compound, the GI50 (ACHN renal) was 13.8 µM, the TGI (ACHN renal) was 27.8 µM and the GI50 (RXF 393 renal) was 6.53 µM. It also gave a TGI (RXF 393 renal) of 20.8 µM, a GI50 (OVCAR-3 ovarian) of 15.5 µM and a TGI (OVCAR-3 ovarian) of 29.6 µM. It also gave a GI50 (K-562 leukemia) of 12.2 µM, a TGI (K-562 leukemia) of 31.4 µM and a GI50 (NCI-H460 lung) of 14.9 µM. It also gave a TGI (NCI-H460 lung) of 30.8 µM, a GI50 (OVCAR-5 ovarian) of 13.7 µM and a TGI (OVCAR-5 ovarian) of 28 µM. The GI50 (MDA-MB-435) was 12.3 µM, the TGI (MDA-MB-435) was 28.1 µM and the GI50 (MCF7 breast) was 13.9 µM. It also gave a TGI (MCF7 breast) of 28.7 µM, a GI50 (SK-MEL-28 melanoma) of 15.4 µM and a TGI (SK-MEL-28 melanoma) of 29.9 µM.

Reference: PubChem BioAssay (NCI)
